From patent US12410164B2, “Heterocyclic compounds and medical use thereof” (FONDAZIONE TELETHON, priority 2018, dated 2025)
“Also recorded” adds a separate entry of the source.

How the values were obtained:
[1] = test system: calcium-dependent chloride secretion; assay: Short-circuit current in bronchial epithelial cells: UTP-activated, inh-A01-inhibited chloride secretion; format: cell-based, human; settings: compound 10 μM, activated with UTP
Experimental: FIG. 3. PP008 corrective activity on primary epithelial cells. (A) The representative plots and (B) the bar chart show the results obtained by treating bronchial epithelial cells from a patient homozygous for the mutation F508del with PP008 (10 μM) in the presence and absence of VX-809 (1 μM). As control, cells were treated for 24 h with vehicle alone (dimethylsufoxide, DMSO) at the same concentration (0.1%) used to add test compounds. […] (C) Results obtained on nasal epithelial cells of a homozygous F508del patient. *, p<0.05; ***, p<0.001.
(§1) The culture and functional study of human primary nasal and bronchial epithelial cells have been described in detail above (Scudieri P, et al. J Physiol. 2012, 590, 6141-6155). Briefly, nasal epithelial cells were taken after informed consent using the “brushing” technique. […] With this mode, the transepithelial potential difference is locked to zero and the resulting current, supplied by the Voltage Clamp is recorded by an AD/DA converter (PowerLab, ADInstruments).

F508del-CFTR [2] = molecular target: T1, F508del-CFTR (Homo sapiens, UniProt P13569, DEL508-508); assay: Transepithelial short-circuit current in primary bronchial epithelial cells of F508del homozygous CF patient; format: cell-based; parameters: endogenous in cells; host or cells: primary bronchial and nasal epithelial cells from CF patients homozygous for F508del
T1 sequence (P13569 with tags, fused parts or gaps DEL508-508): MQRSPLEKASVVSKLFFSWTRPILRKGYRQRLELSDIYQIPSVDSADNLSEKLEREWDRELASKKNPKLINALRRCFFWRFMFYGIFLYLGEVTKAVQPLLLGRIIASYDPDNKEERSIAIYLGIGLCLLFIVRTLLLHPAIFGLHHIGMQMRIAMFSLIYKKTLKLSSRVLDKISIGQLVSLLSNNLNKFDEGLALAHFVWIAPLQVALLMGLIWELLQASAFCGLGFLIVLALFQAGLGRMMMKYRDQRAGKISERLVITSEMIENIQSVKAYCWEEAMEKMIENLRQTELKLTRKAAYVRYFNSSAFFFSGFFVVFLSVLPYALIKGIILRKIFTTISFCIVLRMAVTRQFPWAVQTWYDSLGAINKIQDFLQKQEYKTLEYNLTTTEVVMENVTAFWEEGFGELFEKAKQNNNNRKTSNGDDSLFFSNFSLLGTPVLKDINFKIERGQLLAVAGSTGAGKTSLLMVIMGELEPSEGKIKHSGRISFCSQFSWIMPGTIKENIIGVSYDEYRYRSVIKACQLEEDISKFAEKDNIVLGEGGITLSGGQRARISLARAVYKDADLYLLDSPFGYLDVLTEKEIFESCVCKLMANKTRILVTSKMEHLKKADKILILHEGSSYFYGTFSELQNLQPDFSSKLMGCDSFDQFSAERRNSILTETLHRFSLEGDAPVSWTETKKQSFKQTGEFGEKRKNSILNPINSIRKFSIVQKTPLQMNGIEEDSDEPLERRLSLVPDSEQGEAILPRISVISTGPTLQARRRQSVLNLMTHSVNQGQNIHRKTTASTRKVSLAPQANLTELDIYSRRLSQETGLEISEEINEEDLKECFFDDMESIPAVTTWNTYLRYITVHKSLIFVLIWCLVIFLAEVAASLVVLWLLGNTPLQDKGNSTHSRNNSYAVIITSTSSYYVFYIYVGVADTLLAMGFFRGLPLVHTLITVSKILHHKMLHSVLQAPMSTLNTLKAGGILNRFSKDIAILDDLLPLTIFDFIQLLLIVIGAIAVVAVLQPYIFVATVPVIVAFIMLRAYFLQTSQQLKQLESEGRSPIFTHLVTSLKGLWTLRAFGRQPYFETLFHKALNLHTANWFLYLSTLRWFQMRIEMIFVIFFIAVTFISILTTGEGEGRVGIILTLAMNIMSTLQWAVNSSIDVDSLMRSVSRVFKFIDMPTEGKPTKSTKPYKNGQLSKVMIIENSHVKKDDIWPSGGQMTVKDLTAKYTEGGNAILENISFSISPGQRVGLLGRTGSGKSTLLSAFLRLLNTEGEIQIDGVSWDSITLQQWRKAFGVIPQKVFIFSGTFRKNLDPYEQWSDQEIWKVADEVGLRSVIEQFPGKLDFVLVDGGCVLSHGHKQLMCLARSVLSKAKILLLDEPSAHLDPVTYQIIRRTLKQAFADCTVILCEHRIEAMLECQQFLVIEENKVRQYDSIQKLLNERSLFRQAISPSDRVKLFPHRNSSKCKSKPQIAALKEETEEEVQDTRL
Experimental: as §1
The cells were grown in such a way as to generate differentiated epithelia on porous supports (Snapwell). […] As a channel-protein able to mediate a chloride ion flux, CFTR activity is detected as a transepithelial ionic current. […]

F508del-CFTR [3] = molecular target: T1, F508del-CFTR; assay: Transepithelial short-circuit current in primary nasal epithelial cells of F508del homozygous CF patient; format: cell-based; parameters: endogenous in cells; host or cells: primary bronchial and nasal epithelial cells from CF patients homozygous for F508del; settings: FIG. 3C
Excerpt: The culture and functional study of human primary nasal and bronchial epithelial cells have been described in detail above (Scudieri P, et al. J Physiol. 2012, 590, 6141-6155). Briefly, nasal epithelial cells were taken after informed consent using the “brushing” technique. Bronchial cells were instead obtained by proteolytic digestion of bronchi isolated from the lungs of patients (suffering from CF or other pulmonary pathology (idiopathic pulmonary fibrosis, pulmonary hypertension, emphysema) subjected to transplant operations. The informed consent of the patients was obtained also in this case. After isolation, epithelial cells were cultured in a liquid medium of defined serum-free composition. This medium consists of a mixture of LHC9/RPMI 1640 (1:1) enriched with various hormones and growth factors (Scudieri P, et al. J Physiol. 2012, 590, 6141-6155). After 3-5 passages, necessary for the expansion of the initial number, the cells were seeded at high density on Snapwell porous supports (Corning, 3801). After 24 hours, the culture medium was replaced by a mixture consisting of DMEM and Ham's F12 (1:1) enriched with 2% foetal bovine serum and other supplements. […] With this mode, the transepithelial potential difference is locked to zero and the resulting current, supplied by the Voltage Clamp is recorded by an AD/DA converter (PowerLab, ADInstruments).

F508del-CFTR [4] = molecular target: T1, F508del-CFTR; assay: Analysis of F508del-CFTR localization by immunofluorescence in CFBE41o− cells; format: cell-based; parameters: expressed in transfected cells; host or cells: CFBE41o- cells with expression of F508del-CFTR and HS-YFP (generated as in Sondo et al. 2011); settings: compound 10 μM plus VX-809 1 μM, 24 hr
Experimental: CFBE41o− cells were seeded in a 12-well μ-chamber (81201, Ibidi) at a density of 25.000 cells per well and treated with compounds for 24 hr. Cells were then rinsed with PBS and fixed by adding 100 μl per well of 10% neutral buffered formalin for 5 minutes at room temperature. After 3 washes with 300 μl of PBS, cells were permeabilized with PBS-Triton X-100 0.3% for 5 min, blocked with PBS-BSA 1% for 2 hr, and incubated overnight at 4° C. with 100 μl of primary antibody diluted in blocking solution. The CFTR antibody was ab570 mouse IgG1 (University of North Carolina at Chapel Hill, and Cystic Fibrosis Foundation Therapeutics, see Cui L, et al. J. Mol Biol 2007, 365, 981-994) diluted at 1:250. Following incubation with primary antibody, cells were rinsed three times with PBS and incubated with 100 μl of a solution of secondary goat anti-mouse Alexa Fluor-546 antibodies (Invitrogen A-11030) diluted in PBS-BSA 1% for 1 hour in the dark. After three further washes in PBS, cells were covered with mounting medium and coverslip, and then analysed using a laser-scanning confocal microscope SPE (Leica Microsystems).
As a second type of experiment, the localization of F508del-CFTR protein was evaluated by immunofluorescence. Cells were treated with compounds, then fixed and immunostained with antibodies against CFTR. Images were taken with a confocal microscope.

effect of combination with VX-809 on F508del-CFTR current (F508del-CFTR [3]) | SMILES | calcium-dependent chloride secretion [1] | F508del-CFTR activity (current blocked by inh-172) (F508del-CFTR [2]; compound 10 μM alone, 24 h incubation) | F508del-CFTR activity (current blocked by inh-172) of combination (F508del-CFTR [2]; compound 10 μM plus VX-809 1 μM, 24 h) | F508del-CFTR localization (F508del-CFTR [4])
synergistic effect | CCOC(=O)c1c(Br)c2c(n1Cc1ccc(C)cc1)-c1[nH]c(=O)c(S(=O)(=O)c3ccccc3)cc1CC2 [PP008, Ethyl 7-(benzenesulfonyl)-3-bromo-1-[(4-methylphenyl)methyl]-8-oxo-4,5,8,9-tetrahydro-1H-pyrrolo[3,2-h]quinoline-2-carboxylate] | does not modify | significantly increased; also recorded: significant increase in current | significantly greater than the sum of the effects of the individual correctors | –
– | CCOC(=O)c1c(Br)c2c(n1Cc1cccc(C)c1)-c1[nH]c(=O)c(S(=O)(=O)c3ccccc3)cc1CC2 [PP028, Ethyl 3-bromo 1-(3-methylbenzyl)-8-oxo-7-(phenylsulfonyl)-4,5,8,9-tetrahydro-1H-pyrrolo[3,2-h]quinoline-2-carboxylate] | – | – | – | cause appearance of F508del-CFTR at the cell periphery
